Assay results as given in patent US20140066365A1, “USE OF CALIXARENES ASSOCIATED WITH AN ANTIBIOTIC IN THE TREATMENT OF BACTERIAL INFECTIONS” (priority 2011, published 2014).
Converted amounts (≈) assume the structure as drawn. Like-named read-outs stand apart in the source and are kept apart here.

Experiments:
Format in all cases: cell-based
[1] = test system: EcR1: Penicillinase-Producing Escherichia coli without Associated Resistance; test: Antibiogram, MIC by the VITEK 2 system; conditions: for MIC: Escherichia coli; for CA-SFM Interpretation: EcR1, MIC against Cc CA-SFM 2011; for CLSI Interpretation: EcR1, MIC against Cc CLSI 2011; for EUCAST Interpretation: EcR1, MIC against Cc EUCAST 2011; for Results: EcR1, interpretation of the MIC, Table A1
Experimental: (§1) 5.1 EcR1: Penicillinase-Producing Escherichia coli without Associated Resistance The bacterial and antibiogramidentification is carried out by the VITEK 2 system (bioMérieux) and by the disk diffusion technique.

[2] = test system: EcR2: Cephalosporinase-Hyperproducing Strain of Escherichia coli; test: Antibiogram, MIC by the VITEK 1 system; conditions: for MIC: Escherichia coli, read-out: MIC; for Results: EcR2, Table B1; for CA-SFM Interpretation: Cc CA-SFM 2011
Experimental: The bacterial and antibiogramidentification is carried out by the VITEK 1 system (bioMérieux) and by the disk diffusion technique

[3] = test system: SaR1: Meticillin-Resistant Staphylococcus aureus without Associated Resistance; test: Antibiogram, MIC by the VITEK 2 system; conditions: SaR1; for MIC: Staphylococcus aureus, read-out: MIC; for CA-SFM Interpretation: Cc CA-SFM 2011; for CLSI Interpretation: Cc CLSI 2011; for EUCAST Interpretation: Cc EUCAST 2011; for Results: from MIC
Experimental: (§2) The bacterial and antibiogramidentification is carried out by the VITEK 2 system (bioMérieux)

[4] = test system: SaR4: Meticillin-Resistant Staphylococcus aureus; test: Antibiogram, MIC by the VITEK 2 system; conditions: SaR4; for MIC: Staphylococcus aureus, read-out: MIC
Experimental: (§3) The bacterial and antibiogramidentification is carried out by the VITEK 2 system (bioMérieux) and by the disk diffusion technique

[5] = test system: PaR5: Pseudomonas aeruginosa; test: Antibiogram by the disk diffusion technique; conditions: for Diameter / Results: Table I1; for Results: against Dmin-Dmax
Experimental: as §3

[6] = test system: EcR1: Penicillinase-Producing Escherichia coli without Associated Resistance; test: Antibiogram by the disk diffusion technique; conditions: Table A1; for Diameter: EcR1, disk diffusion
Experimental: as §1

[7] = test system: EcR3: ESBL-Producing Escherichia coli; test: Antibiogram by the disk diffusion technique; conditions: for CA-SFM Interpretation: Cd CA-SFM 2011; for Diameter: Table C1; for diameter in mm: Table C2
Experimental: The bacterial and antibiogramidentification is carried out by the VITEK 2 system (bioMerieux) and by the disk diffusion technique

[8] = test system: PaR3: Pseudomonas aeruginosa; test: Antibiogram, MIC by the VITEK 2 system
Experimental: as §2

[9] = test system: PaR2: Pseudomonas aeruginosa
Experimental: as §3

[10] = EcR1, Table A2, read-out: MIC mg/L (diameter in mm)
[11] = EcR1, VITEK 2, Table A1, read-out: MIC

## O=C1CN(/N=C/c2ccc([N+](=O)[O-])o2)C(=O)N1 [Nitrofurantoin]
[1]; [10]
  MIC: ≤ 16 mg/L
[1]; [11]
  MIC: ≤ 16 mg/L
[2]; EcR2, VITEK 1, Table B1
  MIC: ≤ 25 µg/mL
[2]; EcR2, Table B2, MIC
  MIC: ≤ 25 µg/mL
[3]; Table D2
  MIC mg/L: ≦16 mg/L
[3]; Table D1
  MIC: ≤ 16 µg/mL
[4]; Table F1
  MIC: ≤ 25 µg/mL
[4]; Table F2, MIC
  MIC: ≤ 25 µg/mL

## CCn1cc(C(=O)O)c(=O)c2cc(F)c(N3CCNCC3)cc21 [Norfloxacin]
[1]
  CA-SFM Interpretation: Susceptible
  CLSI Interpretation: Susceptible
  EUCAST Interpretation: Susceptible
  Results: Susceptible
[1]; [10]
  MIC: ≤ 0.5 mg/L
[1]; [11]
  MIC: ≤ 0.5 mg/L

## CCn1cc(C(=O)O)c(=O)c2cc(F)c(N3CCNCC3)cc21 [Norofloxacin]
[5]; PaR5
  Diameter: 17 mm
  Results: Resistant

## Cc1onc(-c2ccccc2)c1C(=O)N[C@@H]1C(=O)N2[C@@H]1SC(C)(C)[C@@H]2C(=O)O [Oxacillin]
[3]
  CA-SFM Interpretation: Resistant
  CLSI Interpretation: Resistant
  EUCAST Interpretation: Resistant
[3]; Table D1
  Results: Resistant
  MIC: ≥ 8 µg/mL
[3]; Table D2
  MIC mg/L: ≧8 mg/L
[4]; Table F1, MIC
  Results: Resistant
[4]; from MIC, Cc CA-SFM 2011
  CA-SFM Interpretation: Resistant
[4]; from MIC, Cc CLSI 2011
  CLSI Interpretation: Resistant
[4]; from MIC, Cc EUCAST 2011
  EUCAST Interpretation: Resistant
[4]; Table F1
  MIC: ≥ 8 µg/mL
[4]; Table F2, MIC
  MIC: ≥ 8 µg/mL

## CCn1cc(C(=O)O)c(=O)c2cc(F)c(N3CCN(C)CC3)cc21 [Pefloxacin]
[6]
  Diameter: 26 mm
[2]
  Results: Resistant
[2]; EcR2, from MIC
  CA-SFM Interpretation: Resistant
[2]; EcR2, VITEK 1, Table B1
  MIC: ≥ 8 µg/mL
[2]; EcR2, Table B2, MIC
  MIC: ≥ 8 µg/mL
[7]
  CA-SFM Interpretation: Susceptible
  Diameter: 23 mm
  diameter in mm: 23 mm

## CN(C)[C@@H]1C(O)=C(C(N)=O)C(=O)[C@@]2(O)C(O)=C3C(=O)c4c(O)cccc4[C@@](C)(O)[C@H]3C[C@@H]12 [Tetracycline]
[4]; Table F1
  MIC: ≤ 1 µg/mL
[4]; Table F2, MIC
  MIC: ≤ 1 µg/mL

## CC1(C)S[C@@H]2[C@H](NC(=O)[C@H](C(=O)O)c3ccsc3)C(=O)N2[C@H]1C(=O)O [Ticarcillin]
[1]
  CA-SFM Interpretation: Resistant
  CLSI Interpretation: Resistant
  EUCAST Interpretation: Resistant
  Results: Resistant
[1]; [10]
  MIC: ≥ 128 mg/L
[1]; [11]
  MIC: ≥ 128 mg/L
[6]
  Diameter: 6 mm
[6]; EcR1, interpretation of the diameter against Dmin Dmax
  Results: Resistant
[2]
  Results: Intermediate
[2]; EcR2, from MIC
  CA-SFM Interpretation: Resistant
[2]; EcR2, from MIC, Cc CLSI 2011
  CLSI Interpretation: Resistant
[2]; EcR2, from MIC, Cc EUCAST 2011
  EUCAST Interpretation: Resistant
[2]; EcR2, VITEK 1, Table B1
  MIC: 32 µg/mL (≈ 83.2 µM)
[2]; EcR2, Table B2, MIC
  MIC: 32 µg/mL (≈ 83.2 µM)
[7]
  CA-SFM Interpretation: Resistant
  Diameter: 6 mm
  diameter in mm: 6 mm
[7]; Cd CLSI 2011
  CLSI Interpretation: Resistant
[7]; Cd EUCAST 2011
  EUCAST Interpretation: Resistant
[7]; Table C1, against Dmin Dmax
  Results: Resistant
[8]; Cc CA-SFM 2011
  CA-SFM Interpretation: Resistant
[8]; Cc CLSI 2011
  CLSI Interpretation: Resistant
[8]; Cc EUCAST 2011
  EUCAST Interpretation: Resistant
[8]; Pseudomonas aeruginosa, Table H2, read-out: MIC
  MIC: ≥ 128 µg/mL
[8]; Table H1
  MIC: ≧128
  Results: Resistant
[5]; PaR5
  Diameter: 32 mm
  Results: Susceptible
[5]; disk diffusion inhibition diameter, strain PaR5
  diameter in mm: 32 mm
[5]; disk diffusion, PaR5, versus critical diameter CA-SFM 2011
  CA-SFM Interpretation: Susceptible
[5]; disk diffusion, PaR5, versus critical diameter CLSI 2011
  CLSI Interpretation: Susceptible
[5]; disk diffusion, PaR5, versus critical diameter EUCAST 2011, for ** antibiotics the disk load differs and the EUCAST interpretation is not applicable
  EUCAST Interpretation: Susceptible
[9]; Cd CA-SFM 2011
  CA-SFM Interpretation: Resistant
[9]; Cd CLSI 2011
  CLSI Interpretation: Resistant
[9]; Cd EUCAST 2011
  EUCAST Interpretation: Resistant
[9]; Table G1
  Diameter: 10 mm
[9]; Table G1, against Dmin-Dmax
  Results: Resistant
[9]; Table G2
  diameter in mm: 10 mm

## Quinupristin-dalfopristin
[3]
  CA-SFM Interpretation: Susceptible
  CLSI Interpretation: Susceptible
  EUCAST Interpretation: Susceptible
[3]; Table D1
  MIC mg/L: ≦0.25 mg/L
  Results: Susceptible
[3]; Table D2
  MIC mg/L: ≦0.25 mg/L
